Patent publication US11629146B2, “Substituted [1,2,4]triazolo[4,3-a]pyrazines as modulators of sodium channel activity” (Praxis Precision Medicines, Inc., priority 2016, dated 2023)
pIC50: −log10 of the molar value. Read-outs that look alike come from different tables or passages of the source.

What was measured:
human NaV1.6 (hNaV1.6) = human NaV1.6 (hNaV1.6) (Homo sapiens (Human), UniProt Q9UQD0); test: INaL inhibition at hNaV1.6, PatchXpress electrophysiology; assay type: cell-based
Procedure: Functional characterization of exemplary compounds to modulate INaL expressed by the Nay 1.6 voltage-gated sodium channel was accomplished using the PatchXpress™ high throughput electrophysiology platform (Molecular Devices, Sunnyvale, Calif.). HEK-293 cells expressing recombinant, human NaV1.6 (hNaV1.6) were grown in DMEM/high-glucose Dulbecco's modified, 10% FBS, 2 mM sodium pyruvate, 10 mM HEPES and 400 μg/mL G418. Cells were grown to 50%-80% confluency prior to harvesting. […] The onboard liquid handling facility of the PatchXpress was used for dispensing cells and applying test compounds. Nay late currents were evoked by the application of 300 nM ATX-II. […] INaL amplitude and stability were determined by analyzing the mean current amplitude over the final 20 ms of the test pulse. […] Percent steady-state inhibition of INaL was calculated as: [(INaL_compound)/(INaL_control)]*100, where INaL_compound and INaL_control represent INaL recorded in the presence or absence of compound, respectively.

CYP1A2 = CYP1A2 (Homo sapiens (Human), UniProt P05177); test: CYP1A2 inhibition in human liver microsomes; assay type: in vitro ADME; conditions: pooled human liver microsomes, marker substrate Phenacetin
CYP1A2, sequence (P05177 whole entry): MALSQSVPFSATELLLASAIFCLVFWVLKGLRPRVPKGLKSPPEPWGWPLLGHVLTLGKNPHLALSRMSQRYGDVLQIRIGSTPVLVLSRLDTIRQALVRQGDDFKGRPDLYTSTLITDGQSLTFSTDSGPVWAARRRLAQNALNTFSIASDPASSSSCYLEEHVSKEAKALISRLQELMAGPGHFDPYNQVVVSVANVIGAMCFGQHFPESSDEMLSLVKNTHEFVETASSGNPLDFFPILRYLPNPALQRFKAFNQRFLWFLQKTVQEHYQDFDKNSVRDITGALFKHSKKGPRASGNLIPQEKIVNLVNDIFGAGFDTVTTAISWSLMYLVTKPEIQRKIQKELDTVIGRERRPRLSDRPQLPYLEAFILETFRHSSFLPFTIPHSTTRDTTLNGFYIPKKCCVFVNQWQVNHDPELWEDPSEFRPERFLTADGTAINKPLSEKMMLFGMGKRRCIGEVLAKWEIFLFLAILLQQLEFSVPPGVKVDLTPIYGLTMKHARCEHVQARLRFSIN
Procedure: The specific marker metabolites are measured with LC/MS/MS. The remaining enzymatic activities and inhibitory potency IC50 are determined. Microsomes are removed out of the −80° C. freezer to thaw on ice and 20 μL of the substrates solution added to the corresponding wells. […] Then 158 μL of the HLM working solution was added to all wells of the incubation plate. The plate was pre-warmed for about 10 min using a 37° C. water bath. Then 20 μL of the NADPH cofactor solution was added to all incubation wells, mixed and incubated for 10 minutes at 37° C. water bath. The reaction is terminated by adding 400 μL cold stop solution (200 ng/mL Tolbutamide and 200 ng/mL Labetalol in ACN). […] Finally 200 μL of the supernatant was transferred to 100 μL HPLC water, shaken for 10 min and analyzed by LC/MS/MS. […] Equation for three parameters logistic sigmoidal curve: […]

[1] = PK rat clearance experiment; assay type: in vivo; conditions: male Sprague-Dawley rats, single intravenous bolus 0.5 mg/kg, plasma
Procedure: The IV dosing solution was prepared freshly on the dosing day. Test article (0.5 mg/kg) was prepared in a vehicle, for example, consisting of 5% DMSO/5% solutol/90% water. The concentrations of test article in all dosing solutions were determined by HPLC/UV. Three male Sprague-Dawley rats were used in this study. The animals were confirmed healthy before being assigned to the study. Each animal was given a unique identification number which was marked on the tail or the ear, and written on the cage card. All animals were fasted overnight before dosing and the food was returned at 4 hours post dosing. Water was provided to all animals ad libitum during the fasting period. Animals were weighed prior to dose administration on the day of dosing for calculating the actual dose volume. The body weights were in the range from 212 g to 223 g for males. All animals received test article by single intravenous bolus administration at 0.5 mg/kg. Approximately 0.2 mL blood was collected at each time point via jugular vein from each study animal. […] All blood samples were transferred into pre-labeled plastic micro centrifuge tubes and mixed with the pre-loaded anti-coagulant K2EDTA (5 μL, 0.5 M). Plasma samples were then prepared by centrifuging the blood samples. All plasma samples were then quickly frozen over dry ice and kept at −60° C. or lower until LC/MS/MS analysis. The concentrations of test article in plasma were determined by using a quantitative bioanalytical LC/MS/MS method. The lower limit of quantitation (LLOQ) for test article in plasma was 1 ng/mL, and the upper limit of quantitation (ULOQ) in plasma was 3000 ng/mL. The plasma concentration of test article in rats was subjected to a non compartmental pharmacokinetic analysis by using the Phoenix WinNonlin software (version 6.3, Pharsight, Mountain View, Calif.). The linear/log trapezoidal rule was applied in obtaining the PK parameters.

[2] = target: human NaV1.5 late sodium current (INaL) (Homo sapiens (Human), UniProt Q14524); test: INaL inhibition at hNaV1.5, PatchXpress electrophysiology; assay type: cell-based; conditions: HEK-293 cells expressing recombinant human NaV1.5, HEK-293 cells expressing hNaV1.5, late current evoked by 300 nM ATX-II, read-out: INaL v1.5 (1 μM, % Inhibition)
human NaV1.5 late sodium current (INaL), sequence (Q14524 whole entry): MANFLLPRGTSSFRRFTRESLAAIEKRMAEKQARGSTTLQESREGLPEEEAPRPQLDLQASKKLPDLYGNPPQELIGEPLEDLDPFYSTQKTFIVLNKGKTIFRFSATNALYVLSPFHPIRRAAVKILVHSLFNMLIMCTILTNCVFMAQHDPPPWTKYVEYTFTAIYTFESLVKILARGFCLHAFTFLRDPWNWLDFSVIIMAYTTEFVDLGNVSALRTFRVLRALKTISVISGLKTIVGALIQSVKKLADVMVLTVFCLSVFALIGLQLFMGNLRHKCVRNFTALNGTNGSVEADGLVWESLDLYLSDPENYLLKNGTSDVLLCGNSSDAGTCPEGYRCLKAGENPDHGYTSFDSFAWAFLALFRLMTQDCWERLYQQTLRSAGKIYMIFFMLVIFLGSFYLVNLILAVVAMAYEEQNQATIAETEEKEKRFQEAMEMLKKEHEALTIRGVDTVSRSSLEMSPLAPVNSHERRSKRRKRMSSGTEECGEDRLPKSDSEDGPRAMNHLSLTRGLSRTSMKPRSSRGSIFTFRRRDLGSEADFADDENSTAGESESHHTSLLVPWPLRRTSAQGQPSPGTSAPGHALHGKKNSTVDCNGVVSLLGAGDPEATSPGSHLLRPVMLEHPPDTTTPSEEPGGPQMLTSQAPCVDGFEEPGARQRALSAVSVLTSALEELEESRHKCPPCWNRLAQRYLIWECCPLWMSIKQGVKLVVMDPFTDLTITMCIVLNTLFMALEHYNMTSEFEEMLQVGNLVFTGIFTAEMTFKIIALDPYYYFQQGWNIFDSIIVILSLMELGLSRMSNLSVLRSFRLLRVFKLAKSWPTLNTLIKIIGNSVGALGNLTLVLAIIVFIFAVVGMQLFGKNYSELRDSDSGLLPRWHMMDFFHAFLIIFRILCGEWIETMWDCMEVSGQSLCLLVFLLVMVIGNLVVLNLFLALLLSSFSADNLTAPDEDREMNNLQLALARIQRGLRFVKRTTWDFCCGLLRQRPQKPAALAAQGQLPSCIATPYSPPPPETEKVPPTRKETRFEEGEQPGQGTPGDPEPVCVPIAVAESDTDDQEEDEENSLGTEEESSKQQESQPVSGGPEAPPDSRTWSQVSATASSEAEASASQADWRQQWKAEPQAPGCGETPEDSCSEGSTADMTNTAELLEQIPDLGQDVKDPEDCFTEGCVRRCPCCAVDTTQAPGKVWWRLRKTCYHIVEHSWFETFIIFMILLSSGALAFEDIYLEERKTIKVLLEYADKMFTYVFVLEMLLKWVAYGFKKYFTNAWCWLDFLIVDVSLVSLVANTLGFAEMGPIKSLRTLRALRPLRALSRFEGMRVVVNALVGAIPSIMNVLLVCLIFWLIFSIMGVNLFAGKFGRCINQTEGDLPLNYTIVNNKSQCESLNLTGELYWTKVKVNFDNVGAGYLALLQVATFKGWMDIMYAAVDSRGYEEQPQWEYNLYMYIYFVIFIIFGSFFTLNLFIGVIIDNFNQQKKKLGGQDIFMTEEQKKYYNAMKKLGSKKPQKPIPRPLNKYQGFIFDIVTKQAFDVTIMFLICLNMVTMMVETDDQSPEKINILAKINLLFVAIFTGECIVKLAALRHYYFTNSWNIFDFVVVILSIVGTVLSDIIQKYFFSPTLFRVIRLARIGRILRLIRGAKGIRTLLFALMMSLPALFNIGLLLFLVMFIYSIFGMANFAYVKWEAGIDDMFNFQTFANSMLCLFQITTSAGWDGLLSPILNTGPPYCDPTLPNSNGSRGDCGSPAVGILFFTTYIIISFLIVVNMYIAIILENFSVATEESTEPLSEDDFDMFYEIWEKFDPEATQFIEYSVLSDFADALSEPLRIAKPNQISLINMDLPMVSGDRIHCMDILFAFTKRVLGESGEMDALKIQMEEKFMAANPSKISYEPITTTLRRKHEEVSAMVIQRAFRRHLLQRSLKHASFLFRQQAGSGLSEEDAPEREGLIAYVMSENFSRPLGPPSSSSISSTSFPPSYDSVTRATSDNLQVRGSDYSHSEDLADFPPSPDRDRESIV

[3] = HEK293, 1 μM, HEK-293 cells expressing hNaV1.6, late current evoked by 300 nM ATX-II, read-out: INaL v1.6 (1 μM, % Inhibition)
[4] = HEK293, read-out: INaL v1.6 (1 μM, % Inhibition)

human NaV1.6 (hNaV1.6), sequence (Q9UQD0 whole entry): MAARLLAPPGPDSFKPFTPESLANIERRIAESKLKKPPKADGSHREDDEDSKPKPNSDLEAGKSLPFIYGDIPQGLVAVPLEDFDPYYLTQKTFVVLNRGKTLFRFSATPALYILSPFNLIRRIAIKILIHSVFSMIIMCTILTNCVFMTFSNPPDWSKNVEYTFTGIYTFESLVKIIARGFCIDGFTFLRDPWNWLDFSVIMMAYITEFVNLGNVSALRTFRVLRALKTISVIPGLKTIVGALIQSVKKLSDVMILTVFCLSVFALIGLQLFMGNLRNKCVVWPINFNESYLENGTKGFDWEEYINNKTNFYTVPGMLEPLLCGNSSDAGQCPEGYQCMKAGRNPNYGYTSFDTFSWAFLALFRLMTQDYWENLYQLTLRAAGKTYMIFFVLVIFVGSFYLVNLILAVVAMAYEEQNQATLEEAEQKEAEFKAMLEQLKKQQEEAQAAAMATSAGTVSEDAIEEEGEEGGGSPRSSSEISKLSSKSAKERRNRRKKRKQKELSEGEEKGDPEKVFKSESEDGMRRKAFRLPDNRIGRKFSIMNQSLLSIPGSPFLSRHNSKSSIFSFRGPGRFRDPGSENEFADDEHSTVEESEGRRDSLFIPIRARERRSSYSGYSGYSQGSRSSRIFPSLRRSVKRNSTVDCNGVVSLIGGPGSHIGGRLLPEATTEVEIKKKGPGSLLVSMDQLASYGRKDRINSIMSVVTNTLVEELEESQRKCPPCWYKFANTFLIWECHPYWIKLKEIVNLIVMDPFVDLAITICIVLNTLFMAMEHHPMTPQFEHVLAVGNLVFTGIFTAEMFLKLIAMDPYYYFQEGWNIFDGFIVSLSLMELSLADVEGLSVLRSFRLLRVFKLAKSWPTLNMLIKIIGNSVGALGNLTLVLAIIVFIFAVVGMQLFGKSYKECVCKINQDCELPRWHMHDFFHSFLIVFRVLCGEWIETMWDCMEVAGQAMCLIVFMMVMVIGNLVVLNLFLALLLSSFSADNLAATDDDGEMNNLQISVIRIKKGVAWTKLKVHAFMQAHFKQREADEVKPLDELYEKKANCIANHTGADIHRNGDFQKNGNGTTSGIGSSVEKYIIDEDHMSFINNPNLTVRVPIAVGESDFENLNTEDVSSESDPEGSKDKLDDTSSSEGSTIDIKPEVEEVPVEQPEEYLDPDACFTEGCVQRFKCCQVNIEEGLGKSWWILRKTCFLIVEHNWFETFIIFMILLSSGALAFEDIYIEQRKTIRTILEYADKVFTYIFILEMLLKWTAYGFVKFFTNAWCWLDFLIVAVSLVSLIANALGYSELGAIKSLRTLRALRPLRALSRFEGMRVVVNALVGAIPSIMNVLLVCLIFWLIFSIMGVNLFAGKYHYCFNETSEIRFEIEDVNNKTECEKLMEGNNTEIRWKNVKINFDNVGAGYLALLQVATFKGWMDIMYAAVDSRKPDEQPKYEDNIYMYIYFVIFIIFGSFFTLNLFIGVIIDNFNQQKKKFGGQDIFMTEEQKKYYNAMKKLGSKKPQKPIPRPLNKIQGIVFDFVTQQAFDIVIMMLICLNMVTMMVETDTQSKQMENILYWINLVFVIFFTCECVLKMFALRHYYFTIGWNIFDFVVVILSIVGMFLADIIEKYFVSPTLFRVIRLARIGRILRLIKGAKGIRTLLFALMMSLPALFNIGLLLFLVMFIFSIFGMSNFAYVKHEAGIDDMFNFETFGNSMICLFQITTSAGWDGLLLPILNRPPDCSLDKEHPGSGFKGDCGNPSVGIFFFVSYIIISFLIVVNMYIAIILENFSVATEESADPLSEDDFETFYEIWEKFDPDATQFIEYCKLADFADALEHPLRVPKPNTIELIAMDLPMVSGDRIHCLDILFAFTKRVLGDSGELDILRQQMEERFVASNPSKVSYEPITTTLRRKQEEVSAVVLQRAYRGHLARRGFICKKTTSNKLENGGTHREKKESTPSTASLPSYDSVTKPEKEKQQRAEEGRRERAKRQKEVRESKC

inhibition at 1 µM (human NaV1.6 (hNaV1.6); [3]) [%] | pIC50 (CYP1A2) | clearance [1] [mL/min/kg] | half-life [1] [h] | SMILES | inhibition at 1 µM [2] [%] | inhibition at 1 µM (human NaV1.6 (hNaV1.6); [4]) [%]
30 to 70 | 4.82 to 6.00 |  |  | Fc1cc(OC(F)(F)F)ccc1-c1cn2c(C(F)F)nnc2cn1 [Compound 52] |  | 
> 70 |  | 32.8 | 1.4 | FC1(F)CC(c2nnc3ccc(-c4ccc(OC(F)(F)F)cc4)nn23)C1 [Compound 14] | > 50 | 
> 70 | 4.82 to 6.00 | 6 | 6.7 | Cc1cc(C(F)(F)F)ccc1-c1ccc2nnc(C(F)(F)F)n2n1 [Compound 3] | > 50 | 
< 30 |  |  |  | Fc1c(OC(F)(F)F)cccc1-c1ccc2nnc(C(F)(F)F)n2n1 [Compound 19] | < 50 | 
> 70 |  | 52.3 | 0.49 | COc1cc(OC(F)(F)F)ccc1-c1ccc2nnc(C(F)F)n2n1 [Compound 16] | > 50 | 
30 to 70 |  |  |  | FC(F)(F)Oc1cccc(-c2ccc3nnc(C(F)(F)F)n3n2)c1 [Compound 17] | < 50 | 
< 30 |  |  |  | Fc1ccc(OC(F)(F)F)cc1-c1ccc2nnc(C(F)(F)F)n2n1 [Compound 18] | < 50 | 
 | 4.82 to 6.00 |  |  | FC(F)(F)Oc1ccc(-c2ccc3nnc(C(F)(F)F)n3n2)cc1 [Compound 108] |  | 
> 70 | 4.52 to 4.82 | 8.8 | 10.2 | Cc1cc(OC(F)(F)F)ccc1-c1cn2c(C(F)(F)F)nnc2cn1 [Compound 63] |  | 
> 70 |  | 2 | 15.4 | Fc1cc(-c2ccc3nnc(C(F)(F)F)n3n2)ccc1OC(F)(F)F [Compound 31] | > 50 | 
> 70 |  |  |  | Cc1cc(-c2ccc3nnc(C(F)(F)F)n3n2)ccc1OC(F)(F)F [Compound 2] | > 50 | 
> 70 |  |  |  | COc1cc(OC(F)(F)F)ccc1-c1ccc2nnc(C3CC(F)(F)C3)n2n1 [Compound 13] | > 50 | 
> 70 | > 6.00 |  |  | COC(F)(F)c1nnc2ccc(-c3ccc(OC(F)(F)F)cc3)nn12 [Compound 41] |  | 
> 70 | 4.82 to 6.00 |  |  | Cc1cc(OC(F)(F)F)ccc1-c1ccc2nnc(C(F)F)n2n1 [Compound 136] |  | 
> 70 | 4.52 to 4.82 | 7.6 | 8.1 | Cc1cc(OC(F)(F)F)ccc1-c1cn2c(C(F)F)nnc2cn1 [Compound 49] |  | 
> 70 |  | 1.4 | 21.9 | Fc1cc(OC(F)(F)F)ccc1-c1ccc2nnc(C(F)(F)F)n2n1 [Compound 23] | > 50 | 
30 to 70 | 4.82 to 6.00 | 9.2 | 3.2 | FC(F)(F)Cc1nnc2ccc(-c3ccc(OC(F)(F)F)cc3)nn12 [Compound 6] | > 50 | 
> 70 | 4.52 to 4.82 |  |  | COCc1cc(-c2ccc3nnc(C(F)(F)F)n3n2)ccc1OC(F)(F)F [Compound 117] |  | 
> 70 |  |  |  | COc1cc(OC(F)(F)F)ccc1-c1ccc2nnc(C3CC3(F)F)n2n1 (stereo not shown) [Compound 15] | > 50 | 

The remaining lines, values behind:

SMILES | inhibition at 1 µM (human NaV1.6 (hNaV1.6); [3]) [%] | pIC50 (CYP1A2) | clearance [1] [mL/min/kg] | half-life [1] [h] | inhibition at 1 µM [2] [%] | inhibition at 1 µM (human NaV1.6 (hNaV1.6); [4]) [%]
FC1(F)CC(Oc2ccc(-c3ccc4nnc(C(F)(F)F)n4n3)cc2)C1 [Compound 59] | 30 to 70 | < 4.52 | 39.8 | 0.8 |  | 
FC(F)(F)Oc1ccc(-c2ccc3nnc(CC4CCCO4)n3n2)cc1 (stereo not shown) [Compound 11] | < 30 |  |  |  | < 50 | 
FC(F)(F)Oc1ccc(-c2cn3c(C4(F)CC4)nnc3cn2)cc1 [Compound 112] | 30 to 70 | 4.82 to 6.00 |  |  |  | 
C[C@H](Oc1ncc(-c2ccc3nnc(C(F)(F)F)n3n2)cc1F)C(F)(F)F (single isomer, unassigned) [Compound 127] | > 70 | < 4.52 |  |  |  | 
OCc1nnc2ccc(-c3ccc(OC(F)(F)F)cc3)nn12 [Compound 21] |  |  |  |  | < 50 | < 30
FC(F)(F)Oc1ccc(-c2ccc3nnc(C[C@H]4CCCCO4)n3n2)cc1 (single isomer, unassigned) [Compound 42] | 30 to 70 | < 4.52 |  |  |  | 
COc1cc(C2(C#N)CC2)ccc1-c1ccc2nnc(C(F)(F)F)n2n1 [Compound 22] | > 70 |  | 16.6 | 0.6 | > 50 | 
COC(F)(F)c1nnc2ccc(-c3cnc(OCC(F)(F)F)c(F)c3)nn12 [Compound 96] | > 70 | < 4.52 |  |  |  | 
FC(F)(F)COc1ccc(-c2ccc3nnc(C(F)(F)F)n3n2)cn1 [Compound 30] | > 70 | 4.52 to 4.82 | 29 | 0.36 | > 50 | 
FC(F)(F)c1ccc(-c2ccc3nnc(C(F)(F)F)n3n2)cc1 [Compound 1] | > 70 |  |  |  | > 50 | 
Fc1cc(OC(F)(F)F)ccc1-c1cn2c(C(F)(F)F)nnc2cn1 [Compound 72] | < 30 | 4.82 to 6.00 |  |  |  | 
C[C@H](Oc1ncc(-c2cn3c(C(F)(F)F)nnc3cn2)cc1F)C(F)(F)F (single isomer, unassigned) [Compound 125] | > 70 | < 4.52 |  |  |  | 
FC(F)(F)COc1ccc(-c2ccc3nnc(C4CC4)n3n2)cn1 [Compound 8] | 30 to 70 |  |  |  | > 50 | 
COCc1cc(C(F)(F)F)ccc1-c1cn2c(C(F)(F)F)nnc2cn1 [Compound 113] | > 70 | 4.82 to 6.00 |  |  |  | 
Cc1cc(C2(C#N)CC2)ccc1-c1ccc2nnc(C(F)(F)F)n2n1 [Compound 105] |  | 4.52 to 4.82 |  |  |  | 30 to 70
FC(F)(F)COc1ccc(-c2ccc3nnc(CC(F)(F)F)n3n2)cn1 [Compound 7] | 30 to 70 |  |  |  | < 50 | 
CC(C)Oc1ccc(-c2cn3c(C(F)(F)F)nnc3cn2)cc1 [Compound 77] | > 70 | 4.82 to 6.00 |  |  |  | 
FC(F)(F)c1nnc2ccc(-c3ccc([C@@H]4CC4(F)F)cc3)nn12 (single isomer, unassigned) [Compound 122] |  | > 6.00 |  |  |  | > 70
Fc1cc(-c2ccc3nnc(C(F)(F)F)n3n2)cnc1OCC(F)(F)F [Compound 107] | > 70 | < 4.52 | 13.9 | 1.9 |  | 
FC1(F)CC(Oc2ccc(-c3ccc4nnc(C(F)(F)F)n4n3)cn2)C1 [Compound 65] | > 70 | < 4.52 | 31 | 0.55 |  | 
Fc1cc(-c2cn3c(C(F)(F)F)nnc3cn2)cnc1OCC(F)(F)F [Compound 78] | 30 to 70 | < 4.52 |  |  |  | 
C[C@@H](Oc1ncc(-c2cn3c(C(F)(F)F)nnc3cn2)cc1F)C(F)(F)F (single isomer, unassigned) [Compound 124] | > 70 | < 4.52 | 15.9 | 6.5 |  | 
Cc1cc(C(F)(F)F)ccc1-c1cn2c(C(F)(F)F)nnc2cn1 [Compound 73] | 30 to 70 | 4.82 to 6.00 |  |  |  | 
FC(F)(F)Oc1ccc(-c2ccc3nnc(C[C@@H]4CCCCO4)n3n2)cc1 (single isomer, unassigned) [Compound 43] | 30 to 70 | < 4.52 |  |  |  | 
C[C@@H](Oc1ncc(-c2ccc3nnc(C(F)(F)F)n3n2)cc1F)C(F)(F)F (single isomer, unassigned) [Compound 126] | > 70 | < 4.52 |  |  |  | 
FC(F)(F)COc1ccc(-c2ccc3nnc(C(F)(F)C(F)(F)F)n3n2)cn1 [Compound 9] | 30 to 70 |  |  |  | > 50 | 
N#CC1(c2ccc(-c3ccc4nnc(C(F)(F)F)n4n3)cc2)CC1 [Compound 12] | > 70 | 4.82 to 6.00 | 5.1 | 1.4 | > 50 | 
FC(F)(F)Oc1ccc(-c2ccc3nnc(CC4CCOC4)n3n2)cc1 (stereo not shown) [Compound 10] | 30 to 70 |  |  |  | < 50 | 
